For orientation: EC50 means the midpoint of the concentration-response curve. High values mean lower potency in that assay, low ones higher potency in that assay.

This assay deals with T1, human GPBAR1 receptor (Homo sapiens, UniProt Q8TDU6).
T1 construct: expressed in transfected cells
T1 sequence (Q8TDU6 1-330): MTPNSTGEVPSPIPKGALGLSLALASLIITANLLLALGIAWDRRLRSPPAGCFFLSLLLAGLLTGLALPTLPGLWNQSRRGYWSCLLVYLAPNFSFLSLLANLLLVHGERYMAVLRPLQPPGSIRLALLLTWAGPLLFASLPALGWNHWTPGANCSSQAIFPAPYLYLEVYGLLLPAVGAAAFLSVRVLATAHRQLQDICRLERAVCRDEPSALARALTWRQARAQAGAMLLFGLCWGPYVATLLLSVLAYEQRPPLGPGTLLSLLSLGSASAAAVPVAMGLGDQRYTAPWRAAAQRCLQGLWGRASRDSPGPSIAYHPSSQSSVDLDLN
Briefly: functional cAMP assay in CHO-dhfr(minus) cells expressing human GPBAR1 receptors. The assay is classed as cell-based. The note with it: cAMP increase (TR-FRET) in CHO-dhfr(minus) cells expressing human GPBAR1; compounds incubated 30 min at 30° C. As for the experimental part: The final clone was verified by DNA sequence analysis. The plasmid was transfected into CHO cells deficient in dihydrofolate reductase activity (CHO-dhfr-) using Lipofectamine plus (Invitrogen). Clones were isolated in limited dilution conditions and identified by activities in the cAMP assay using lithocholic acid as agonist.
The growth medium was exchanged with Krebs Ringer Bicarbonate buffer with 1 mM IBMX and incubated at 30° C. for 30 mM. Compounds were added to a final assay volume of 100 μl and incubated for 30 min at 30° C. […] The time-resolved energy transfer is measured by a TRF reader (Evotec Technologies GmbH, Hamburg Germany), equipped with a ND:YAG laser as excitation source. The plate is measured twice with the excitation at 355 nm and at the emission with a delay of 100 ns and a gate of 100 ns, total exposure time 10s at 730 (bandwith 30 nm) or 645 nm (bandwith 75 nm), respectively.
EC50 values were determined using Activity Base analysis (ID Business Solution, Limited). […] Specificity for GPBAR1 was tested in non-transfected CHO cells in the same assay as above.
For orientation: Changes in cAMP serve as a functional read-out for many G protein-coupled receptors.

As for `O=C(c1cccnc1Oc1cc(Cl)ccc1Cl)N1CCN(c2ccccc2)c2ccccc21` [Example 74, [2-(2,5-Dichloro-phenoxy)-pyridin-3-yl]-(4-phenyl-3,4-dihydro-2H-quinoxalin-1-yl)-methanone], the EC50 came out at 1530 nM.

On to `COc1ccncc1N(C)C(=O)c1cccnc1Oc1cc(Cl)ccc1Cl` [Example 75, 2-(2,5-Dichloro-phenoxy)-N-(4-methoxy-pyridin-3-yl)-N-methyl-nicotinamide], for which a half-maximal effect (EC50) was put at 1580 nM.

`O=C(c1cccnc1Oc1ccc(Cl)cc1Cl)N1CCCc2ccccc21` [Example 76, [2-(2,4-Dichloro-phenoxy)-pyridin-3-yl]-(3,4-dihydro-2H-quinolin-1-yl)-methanone] gave a half-maximal effective concentration (EC50) of 1960 nM.

`Cc1ccc2c(c1)CCCN2C(=O)c1cccnc1Oc1ccc(F)c(Cl)c1` [Example 77, [2-(3-Chloro-4-fluoro-phenoxy)-pyridin-3-yl]-(6-methyl-3,4-dihydro-2H-quinolin-1-yl)-methanone] yielded an EC50 of 765 nM. This EC50 lies about 2.6-fold lower than the previous one.

In turn, `O=C(c1cccnc1Oc1ccc(F)c(Cl)c1)N1CCCc2ncccc21` [Example 78, [2-(3-Chloro-4-fluoro-phenoxy)-pyridin-3-yl]-(3,4-dihydro-2H-[1,5]naphthyridin-1-yl)-methanone] displayed an EC50 of 128 nM. As for `O=C(c1cccnc1Oc1ccc(F)c(Cl)c1)N1CCCc2cc(F)c(F)cc21` [Example 79, [2-(3-Chloro-4-fluoro-phenoxy)-pyridin-3-yl]-(6,7-difluoro-3,4-dihydro-2H-quinolin-1-yl)-methanone], the EC50 is 127 nM. The EC50 values of the last two compounds are within 1.5-fold of each other. To `CC1CCc2ccccc2N1C(=O)c1cc(F)cnc1Oc1cc(Cl)ccc1Cl` (centres unmarked) [Example 80, [2-(2,5-Dichloro-phenoxy)-5-fluoro-pyridin-3-yl]-(2-methyl-3,4-dihydro-2H-quinolin-1-yl)-methanone] belongs 630 nM.

For `O=C(c1cc(F)cnc1Oc1cc(Cl)ccc1Cl)N1CCOc2ccccc21` [Example 81, [2-(2,5-Dichloro-phenoxy)-5-fluoro-pyridin-3-yl]-(2,3-dihydro-benzo[1,4]oxazin-4-yl)-methanone], it took 78 nM to reach a half-maximal effect (EC50). Compared with the last compound, the EC50 is about 8.1-fold lower. As for `O=C1CCCN(C(=O)c2cc(F)cnc2Oc2cc(Cl)ccc2Cl)c2ccccc21` [Example 82, 1-[2-(2,5-Dichloro-phenoxy)-5-fluoro-pyridine-3-carbonyl]-1,2,3,4-tetrahydro-benzo[b]azepin-5-one], the half-maximal effective concentration (EC50) is 1270 nM. `O=C(c1cc(F)cnc1Oc1cc(Cl)ccc1Cl)N1CCCc2ccccc21` [Example 83, [2-(2,5-Dichloro-phenoxy)-5-fluoro-pyridin-3-yl]-(3,4-dihydro-2H-quinolin-1-yl)-methanone] returned an EC50 of 13 nM. To `CCN(C(=O)c1cc(F)cnc1Oc1cc(Cl)ccc1Cl)c1ccccc1` [Example 84, 2-(2,5-Dichloro-phenoxy)-N-ethyl-5-fluoro-N-phenyl-nicotinamide] belongs 686 nM; to `O=C(c1cc(F)cnc1Oc1cccc(Cl)c1)N1CCCc2cc(F)c(F)cc21` [Example 85, [2-(3-Chloro-phenoxy)-5-fluoro-pyridin-3-yl]-(6,7-difluoro-3,4-dihydro-2H-quinolin-1-yl)-methanone], 231 nM.

With `O=C(c1cc(F)cnc1Oc1ccc(F)c(Cl)c1)N1CCCc2ccccc21` [Example 86, [2-(3-Chloro-4-fluoro-phenoxy)-5-fluoro-pyridin-3-yl]-(3,4-dihydro-2H-quinolin-1-yl)-methanone], the EC50 was determined as 96 nM. On to `O=C(c1cc(F)cnc1Oc1ccc(F)c(Cl)c1)N1CCCc2cc(F)c(F)cc21` [Example 87, [2-(3-Chloro-4-fluoro-phenoxy)-5-fluoro-pyridin-3-yl]-(6,7-difluoro-3,4-dihydro-2H-quinolin-1-yl)-methanone], for which the concentration giving a half-maximal response (EC50) was found to be 75 nM. With `Cc1cccc2c1N(C(=O)c1cc(F)cnc1Oc1ccc(F)c(Cl)c1)CCC2` [Example 88, [2-(3-Chloro-4-fluoro-phenoxy)-5-fluoro-pyridin-3-yl]-(8-methyl-3,4-dihydro-2H-quinolin-1-yl)-methanone] the figure was 950 nM; with `O=C(c1ccncc1Oc1cc(Cl)ccc1Cl)N1CCCc2ccccc21` [Example 89, [3-(2,5-Dichloro-phenoxy)-pyridin-4-yl]-(3,4-dihydro-2H-quinolin-1-yl)-methanone], 7 nM. In turn, `O=C(c1ccncc1Oc1cc(Cl)ccc1Cl)N1CCCc2ccc(F)cc21` [Example 90, [3-(2,5-Dichloro-phenoxy)-pyridin-4-yl]-(7-fluoro-3,4-dihydro-2H-quinolin-1-yl)-methanone] registered a concentration giving a half-maximal response (EC50) of 19 nM. This EC50 lies about 2.7-fold higher than the previous one.

On to `O=C(c1ccncc1Oc1cc(Cl)ccc1Cl)N1CCCc2cc(F)ccc21` [Example 91, [3-(2,5-Dichloro-phenoxy)-pyridin-4-yl]-(6-fluoro-3,4-dihydro-2H-quinolin-1-yl)-methanone], for which the 50% effective concentration (EC50) turned out to be 15 nM. As for `O=C(c1ccncc1Oc1cc(Cl)ccc1Cl)N1CCCc2cc(F)cc(F)c21` [Example 92, [3-(2,5-Dichloro-phenoxy)-pyridin-4-yl]-(6,8-difluoro-3,4-dihydro-2H-quinolin-1-yl)-methanone], the midpoint of the response, the EC50, lay at 7 nM. To `Cc1ccccc1N(C)C(=O)c1ccncc1Oc1cc(Cl)ccc1Cl` [Example 93, 3-(2,5-Dichloro-phenoxy)-N-methyl-N-o-tolyl-isonicotinamide] belongs 57 nM; to `CN(C(=O)c1ccncc1Oc1cc(Cl)ccc1Cl)c1ccccc1Cl` [Example 94, N-(2-Chloro-phenyl)-3-(2,5-dichloro-phenoxy)-N-methyl-isonicotinamide], 157 nM. Turning to `COc1ccccc1N(C)C(=O)c1ccncc1Oc1cc(Cl)ccc1Cl` [Example 95, 3-(2,5-Dichloro-phenoxy)-N-(2-methoxy-phenyl)-N-methyl-isonicotinamide], a half-maximal effect (EC50) was put at 28 nM.

Take `O=C(c1ccncc1Oc1ccc(Cl)cc1Cl)N1CCCc2ccc(F)cc21` [Example 96, [3-(2,4-Dichloro-phenoxy)-pyridin-4-yl]-(7-fluoro-3,4-dihydro-2H-quinolin-1-yl)-methanone]: a half-maximal effect (EC50) was put at 328 nM. In turn, `O=C(c1ccncc1Oc1ccc(Cl)cc1Cl)N1CCCc2cc(F)cc(F)c21` [Example 98, [3-(2,4-Dichloro-phenoxy)-pyridin-4-yl]-(6,8-difluoro-3,4-dihydro-2H-quinolin-1-yl)-methanone] gave an EC50 of 217 nM.

In turn, `Cc1ccccc1N(C)C(=O)c1ccncc1Oc1ccc(Cl)cc1Cl` [Example 99, 3-(2,4-Dichloro-phenoxy)-N-methyl-N-o-tolyl-isonicotinamide] displayed a concentration giving a half-maximal response (EC50) of 388 nM. Take `CN(C(=O)c1ccncc1Oc1ccc(Cl)cc1Cl)c1ccccc1Cl` [Example 100, N-(2-Chloro-phenyl)-3-(2,4-dichloro-phenoxy)-N-methyl-isonicotinamide]: the concentration giving a half-maximal response (EC50) worked out at 1050 nM. `COc1ccccc1N(C)C(=O)c1ccncc1Oc1ccc(Cl)cc1Cl` [Example 101, 3-(2,4-Dichloro-phenoxy)-N-(2-methoxy-phenyl)-N-methyl-isonicotinamide] returned a 50% effective concentration (EC50) of 150 nM. Compound `COc1ncccc1N(C)C(=O)c1ccncc1Oc1ccc(Cl)cc1Cl` [Example 102, 3-(2,4-Dichloro-phenoxy)-N-(2-methoxy-pyridin-3-yl)-N-methyl-isonicotinamide] displayed a half-maximal effective concentration (EC50) of 703 nM. To `O=C(c1ccncc1Oc1ccc(F)c(Cl)c1)N1CCCc2ccc(F)cc21` [Example 103, [3-(3-Chloro-4-fluoro-phenoxy)-pyridin-4-yl]-(7-fluoro-3,4-dihydro-2H-quinolin-1-yl)-methanone] belongs 299 nM; to `O=C(c1ccncc1Oc1ccc(F)c(Cl)c1)N1CCCc2cc(F)ccc21` [Example 104, [3-(3-Chloro-4-fluoro-phenoxy)-pyridin-4-yl]-(6-fluoro-3,4-dihydro-2H-quinolin-1-yl)-methanone], 173 nM; to `O=C(c1ccncc1Oc1ccc(F)c(Cl)c1)N1CCCc2cc(F)cc(F)c21` [Example 105, [3-(3-Chloro-4-fluoro-phenoxy)-pyridin-4-yl]-(6,8-difluoro-3,4-dihydro-2H-quinolin-1-yl)-methanone], 138 nM. With `Cc1ccccc1N(C)C(=O)c1ccncc1Oc1ccc(F)c(Cl)c1` [Example 106, 3-(3-Chloro-4-fluoro-phenoxy)-N-methyl-N-o-tolyl-isonicotinamide] the figure was 425 nM; with `CN(C(=O)c1ccncc1Oc1ccc(F)c(Cl)c1)c1ccccc1Cl` [Example 107, 3-(3-Chloro-4-fluoro-phenoxy)-N-(2-chloro-phenyl)-N-methyl-isonicotinamide], 662 nM.

The compound `COc1ccccc1N(C)C(=O)c1ccncc1Oc1ccc(F)c(Cl)c1` [Example 108, 3-(3-Chloro-4-fluoro-phenoxy)-N-(2-methoxy-phenyl)-N-methyl-isonicotinamide] registered an EC50 of 122 nM. To `COc1ncccc1N(C)C(=O)c1ccncc1Oc1ccc(F)c(Cl)c1` [Example 109, 3-(3-Chloro-4-fluoro-phenoxy)-N-(2-methoxy-pyridin-3-yl)-N-methyl-isonicotinamide] belongs 562 nM.

These data come from patent US8309734B2 (Hoffmann-La Roche Inc., priority 2008, dated 2012).
